Source: patent publication US8263772B2, “MCH receptor antagonists” (Eli Lilly and Company, priority 2006, dated 2012)
Structures can show the parent of a compound that is named as a salt.

How the values were obtained:
[1] = system: diet-induced obese male Long-Evans rats; test: In vivo efficacy: food intake and body weight change in diet-induced obese rats; parameters: species or system rat; settings: 10 mg/Kg, oral gavage once a day for 3 days
Description: Vehicle consisted of 10% acacia and 0.15% saccharin in water.
House animals individually in a temperature regulated room (24° C.) with a reverse 12 hour light/dark cycle (dark 10:00/22:00). Make water and food (Teklad 95217, Harlan, Wis.) available ad libitum. Dose compounds orally once a day before onset of dark for 3 days. Measure daily food intake and body weight change for the 3 day period. The compound of Example 25 produces an average body weight reduction of about 6 grams@10 mg/Kg versus vehicle control.

MCHR1 = biological target: T1, MCHR1 (Homo sapiens, UniProt Q99705); test: 125I-MCH competitive binding assay with clone 43 membranes (SPA); settings: 125I-MCH binding, Ki from IC50 by Cheng-Prusoff
T1 construct: The full-length cDNA for human MCHR1 is cloned; expressed in transfected cells; host or cells: AV12 cells previously transfected with Gα15; membranes
Description: The full-length cDNA for human MCHR1 is cloned from a human adult brain cDNA library (Edge Biosystems, Cat. 38356) by standard polymerase chain reaction (PCR) methodology employing the following primers: sense, 5′-GCCACCATGGACCT GGAAGCCTCGCTGC-3′; anti-sense, 5′-[…]-3′. The PCR reaction is performed in a final volume of 50 μL containing 5 μL of a 10× stock solution of PCR buffer, 1 μL of 10 mM dNTP mixture (200 μM final), 2 μl of 50 mM Mg(SO4) (2 mM final), 0.5 μL of 20 μM solutions of each primer (0.2 μM final), 5 μL of template cDNA containing 0.5 ng DNA, 0.5 μL of Platinum Taq High Fidelity DNA polymerase (Gibco Life Technologies) and 36 μL of H2O. […]
In order to generate cell lines stably expressing MCHR1, subclone the insert into the Xba I and Not I sites of pcDNA(+)-3.1-neomycin (Invitrogen). […] The G418-resistant colonies are further selected for MCHR1 expression by measuring MCH-stimulated Ca^2+ transients with a fluorometric imaging plate reader (FLIPR, Molecular Devices). […]
Binding of compounds to MCHR1 is assessed in a competitive binding assay employing ^125I-MCH, compound and clone 43 membranes. […] Non-specific binding is assessed in the presence of 0.1 μM unlabeled MCH. Bound ^125I-MCH is determined by placing sealed plates in a Microbeta Trilux (Perkin Elmer Life and Analytical Sciences Inc.) and counting after a 12 h delay. […]

T1 sequence (Q99705 whole entry): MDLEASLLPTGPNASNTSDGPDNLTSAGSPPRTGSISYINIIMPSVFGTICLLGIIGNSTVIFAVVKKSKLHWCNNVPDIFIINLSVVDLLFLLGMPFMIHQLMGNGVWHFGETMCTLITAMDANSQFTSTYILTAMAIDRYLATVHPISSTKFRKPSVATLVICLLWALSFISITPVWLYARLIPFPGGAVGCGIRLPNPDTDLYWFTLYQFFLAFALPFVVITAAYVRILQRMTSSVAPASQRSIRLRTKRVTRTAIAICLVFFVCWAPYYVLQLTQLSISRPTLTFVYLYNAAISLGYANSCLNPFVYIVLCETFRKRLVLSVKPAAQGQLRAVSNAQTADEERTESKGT

SMILES	average body weight reduction versus vehicle control [1]	Ki (MCHR1)
COc1cc(N2CCc3cc(-c4ccc(Cl)cc4)sc3C2=O)ccc1NC(=O)CN1CCCC1.Cl [Example 25, N-{4-[2-(4-Chloro-phenyl)-7-oxo-4,7-dihydro-5H-thieno[2,3-c]pyridin-6-yl]-2-methoxy-phenyl}-2-pyrrolidin-1-yl-acetamide hydrochloride]	about 6 grams	
O=C(CN1CCCC1)Nc1ccc(-n2ccc3cc(-c4ccc(Cl)cc4)sc3c2=O)cc1 [Example 58, N-{4-[2-(4-Chloro-phenyl)-7-oxo-7H-thieno[2,3-c]pyridin-6-yl]-phenyl}-2-pyrrolidin-1-yl-acetamide, hydrochloride]		~3 nM
